ChEMBL document CHEMBL5096241, “Discovery of 3-Aminopyrazole Derivatives as New Potent and Orally Bioavailable AXL Inhibitors” (J Med Chem, 2022)
The source made the active and inactive calls. No cut-off for these calls is given here.

Columns and labels:
[1] = AUClast in Sprague-Dawley rat at 5 mg/kg, iv measured for 96 hrs by LC-MS analysis; format: ADME, organism-based; design: time 96 hrs, dose 5 mg/kg, route iv; settings: in vivo
[2] = Tmax in Sprague-Dawley rat at 25 mg/kg, po measured for 96 hrs by LC-MS analysis; format: ADME, organism-based; settings: in vivo
[3] = target: Angiopoietin-1 receptor (Homo sapiens, UniProt Q02763); test: Binding affinity to TIE2 (unknown origin) assessed as dissociation constant by competition binding assay
[4] = target: Vascular endothelial growth factor receptor 1 (Homo sapiens, UniProt P17948); test: Binding affinity to FLT1 (unknown origin) assessed as dissociation constant by competition binding assay
[5] = target: Platelet-derived growth factor receptor beta (Homo sapiens, UniProt P09619); test: Inhibition of PDGFRB (unknown origin)
Chain of Platelet-derived growth factor receptor beta (P09619 whole entry): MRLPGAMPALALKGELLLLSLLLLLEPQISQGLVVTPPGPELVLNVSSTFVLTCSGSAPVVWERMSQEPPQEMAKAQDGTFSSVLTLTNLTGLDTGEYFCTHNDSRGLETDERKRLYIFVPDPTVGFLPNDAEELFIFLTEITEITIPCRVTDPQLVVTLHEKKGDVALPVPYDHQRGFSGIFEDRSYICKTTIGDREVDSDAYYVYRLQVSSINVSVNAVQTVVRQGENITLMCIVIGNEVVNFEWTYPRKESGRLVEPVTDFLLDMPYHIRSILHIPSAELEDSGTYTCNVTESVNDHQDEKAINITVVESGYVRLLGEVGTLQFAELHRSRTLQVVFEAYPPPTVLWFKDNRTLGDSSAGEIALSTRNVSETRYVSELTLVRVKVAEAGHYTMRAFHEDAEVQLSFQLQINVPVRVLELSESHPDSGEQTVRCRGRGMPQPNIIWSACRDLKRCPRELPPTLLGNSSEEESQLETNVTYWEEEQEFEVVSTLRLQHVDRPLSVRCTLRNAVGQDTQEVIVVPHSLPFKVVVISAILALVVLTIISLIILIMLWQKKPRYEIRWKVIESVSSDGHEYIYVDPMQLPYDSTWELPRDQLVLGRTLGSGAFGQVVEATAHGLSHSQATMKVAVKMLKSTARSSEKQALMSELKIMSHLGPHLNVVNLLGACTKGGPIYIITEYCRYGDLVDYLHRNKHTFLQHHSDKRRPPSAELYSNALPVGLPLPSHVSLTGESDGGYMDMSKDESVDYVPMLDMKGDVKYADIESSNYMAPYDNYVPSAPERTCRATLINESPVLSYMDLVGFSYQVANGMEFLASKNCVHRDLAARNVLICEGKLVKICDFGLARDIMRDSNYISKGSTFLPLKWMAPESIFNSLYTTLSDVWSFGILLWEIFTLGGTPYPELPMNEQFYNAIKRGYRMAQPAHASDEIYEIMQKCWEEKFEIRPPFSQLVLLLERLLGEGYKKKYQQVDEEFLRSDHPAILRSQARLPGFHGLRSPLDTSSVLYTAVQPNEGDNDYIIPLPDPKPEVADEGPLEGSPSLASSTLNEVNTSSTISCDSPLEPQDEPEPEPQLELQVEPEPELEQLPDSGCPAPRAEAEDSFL

[6] = target: T1, Tyrosine-protein kinase receptor UFO (Homo sapiens, UniProt P30530); test: Binding affinity to AXL (unknown origin) assessed as dissociation constant by competition binding assay
T1 sequence (P30530 whole entry): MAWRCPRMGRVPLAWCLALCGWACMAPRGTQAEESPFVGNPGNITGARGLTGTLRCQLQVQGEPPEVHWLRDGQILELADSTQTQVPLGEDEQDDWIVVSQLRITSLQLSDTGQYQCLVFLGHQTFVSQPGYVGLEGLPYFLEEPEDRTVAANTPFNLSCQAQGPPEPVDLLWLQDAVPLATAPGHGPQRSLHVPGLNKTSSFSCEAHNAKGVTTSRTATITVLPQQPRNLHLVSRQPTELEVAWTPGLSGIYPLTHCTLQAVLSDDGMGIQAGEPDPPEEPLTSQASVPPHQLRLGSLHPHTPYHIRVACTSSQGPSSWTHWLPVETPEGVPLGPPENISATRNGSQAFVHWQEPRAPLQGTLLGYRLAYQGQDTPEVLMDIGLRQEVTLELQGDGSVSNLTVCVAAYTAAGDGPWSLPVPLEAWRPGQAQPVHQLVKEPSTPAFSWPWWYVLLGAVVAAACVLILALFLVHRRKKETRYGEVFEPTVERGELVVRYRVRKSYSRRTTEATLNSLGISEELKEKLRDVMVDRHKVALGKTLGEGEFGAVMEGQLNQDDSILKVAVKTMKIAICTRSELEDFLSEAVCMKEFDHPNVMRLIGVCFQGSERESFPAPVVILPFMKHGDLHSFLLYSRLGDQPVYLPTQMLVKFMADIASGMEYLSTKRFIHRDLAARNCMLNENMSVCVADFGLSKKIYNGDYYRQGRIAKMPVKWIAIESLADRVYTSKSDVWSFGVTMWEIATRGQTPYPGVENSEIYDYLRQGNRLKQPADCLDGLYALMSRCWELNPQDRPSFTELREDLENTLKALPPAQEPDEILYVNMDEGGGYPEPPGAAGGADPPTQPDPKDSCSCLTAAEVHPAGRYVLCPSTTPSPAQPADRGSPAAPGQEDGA

[7] = test system: MDA-MB-231; test: Inhibition of TGF-beta induced cell migration in human MDA-MB-231 cells assessed as reduction in wound closure at 1 to 3 uM incubated for 24 hrs by bright field microscopy based wound healing assay; format: functional; settings: dose 1-3 µM
[8] = test system: 4T1; test: Antitumor activity against metastatic mouse 4T1 cells implanted in BALB/c mouse assessed as tumor growth inhibition at 100 mg/kg, po qd administered for 14 consecutive days and measured every 2 days by electronic caliper method relative to control; format: functional; settings: 4T1, 336 h, time 14 day, read-out: TGI
[9] = test system: MDA-MB-231; test: Inhibition of TGF-beta induced epithelial mesenchymal transition process in human metastatic MDA-MB-231 cells assessed as restoration of N-cadherin expression incubated for 3 days by Western blot analysis; format: functional, cell-based; settings: dose 0.11-3 µM, time 3.0 day, DDE = dose-dependent effect
[10] = target: Macrophage colony-stimulating factor 1 receptor (Homo sapiens, UniProt P07333); test: Binding affinity to CSF1R (unknown origin) assessed as dissociation constant by competition binding assay
[11] = Toxicity in BALB/c mouse implanted with mouse 4T1 cells assessed as splenomegaly at 50 to 100 mg/kg, po qd administered for 14 consecutive days; format: organism-based; settings: in vivo, 336 h, dose 50-100 mg/kg, time 14 day
[12] = target: T1, Tyrosine-protein kinase receptor UFO; test: Inhibition of recombinant AXL (unknown origin) using poly (Glu,Tyr) 4:1 as substrate incubated for 60 mins in presence of ATP by ELISA
[13] = target: Tyrosine-protein kinase Mer (Homo sapiens, UniProt Q12866); test: Binding affinity to MERTK (unknown origin) assessed as dissociation constant by competition binding assay
Chain of Tyrosine-protein kinase Mer (Q12866 whole entry, the tested form may be a part): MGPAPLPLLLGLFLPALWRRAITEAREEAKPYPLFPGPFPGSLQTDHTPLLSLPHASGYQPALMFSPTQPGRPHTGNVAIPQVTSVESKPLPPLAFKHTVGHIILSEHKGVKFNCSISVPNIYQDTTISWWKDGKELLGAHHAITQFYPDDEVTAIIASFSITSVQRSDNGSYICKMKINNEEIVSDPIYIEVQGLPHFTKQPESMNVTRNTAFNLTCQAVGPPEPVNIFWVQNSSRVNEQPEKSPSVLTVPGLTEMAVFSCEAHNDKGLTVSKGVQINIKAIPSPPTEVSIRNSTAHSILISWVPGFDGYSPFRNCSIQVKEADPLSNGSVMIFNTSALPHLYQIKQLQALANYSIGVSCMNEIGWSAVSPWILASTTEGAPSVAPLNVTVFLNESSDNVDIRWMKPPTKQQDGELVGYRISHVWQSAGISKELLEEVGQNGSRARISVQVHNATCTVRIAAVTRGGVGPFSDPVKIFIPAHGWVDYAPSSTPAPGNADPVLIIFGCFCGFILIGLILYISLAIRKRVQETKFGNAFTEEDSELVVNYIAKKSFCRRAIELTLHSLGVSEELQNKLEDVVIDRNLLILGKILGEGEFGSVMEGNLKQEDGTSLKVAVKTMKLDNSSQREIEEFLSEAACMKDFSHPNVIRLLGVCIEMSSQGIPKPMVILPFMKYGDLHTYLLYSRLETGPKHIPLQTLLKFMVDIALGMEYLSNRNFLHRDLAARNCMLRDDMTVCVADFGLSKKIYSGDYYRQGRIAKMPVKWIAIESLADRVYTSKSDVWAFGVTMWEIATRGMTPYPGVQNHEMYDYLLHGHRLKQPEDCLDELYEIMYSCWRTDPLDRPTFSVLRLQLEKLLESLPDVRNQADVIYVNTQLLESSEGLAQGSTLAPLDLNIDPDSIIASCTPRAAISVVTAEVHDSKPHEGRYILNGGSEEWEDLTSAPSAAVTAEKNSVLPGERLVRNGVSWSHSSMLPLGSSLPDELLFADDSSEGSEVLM

[14] = target: Epithelial discoidin domain-containing receptor 1 (Homo sapiens, UniProt Q08345); test: Binding affinity to DDR1 (unknown origin) assessed as dissociation constant by competition binding assay
Chain of Epithelial discoidin domain-containing receptor 1 (Q08345 whole entry, the tested form may be a part): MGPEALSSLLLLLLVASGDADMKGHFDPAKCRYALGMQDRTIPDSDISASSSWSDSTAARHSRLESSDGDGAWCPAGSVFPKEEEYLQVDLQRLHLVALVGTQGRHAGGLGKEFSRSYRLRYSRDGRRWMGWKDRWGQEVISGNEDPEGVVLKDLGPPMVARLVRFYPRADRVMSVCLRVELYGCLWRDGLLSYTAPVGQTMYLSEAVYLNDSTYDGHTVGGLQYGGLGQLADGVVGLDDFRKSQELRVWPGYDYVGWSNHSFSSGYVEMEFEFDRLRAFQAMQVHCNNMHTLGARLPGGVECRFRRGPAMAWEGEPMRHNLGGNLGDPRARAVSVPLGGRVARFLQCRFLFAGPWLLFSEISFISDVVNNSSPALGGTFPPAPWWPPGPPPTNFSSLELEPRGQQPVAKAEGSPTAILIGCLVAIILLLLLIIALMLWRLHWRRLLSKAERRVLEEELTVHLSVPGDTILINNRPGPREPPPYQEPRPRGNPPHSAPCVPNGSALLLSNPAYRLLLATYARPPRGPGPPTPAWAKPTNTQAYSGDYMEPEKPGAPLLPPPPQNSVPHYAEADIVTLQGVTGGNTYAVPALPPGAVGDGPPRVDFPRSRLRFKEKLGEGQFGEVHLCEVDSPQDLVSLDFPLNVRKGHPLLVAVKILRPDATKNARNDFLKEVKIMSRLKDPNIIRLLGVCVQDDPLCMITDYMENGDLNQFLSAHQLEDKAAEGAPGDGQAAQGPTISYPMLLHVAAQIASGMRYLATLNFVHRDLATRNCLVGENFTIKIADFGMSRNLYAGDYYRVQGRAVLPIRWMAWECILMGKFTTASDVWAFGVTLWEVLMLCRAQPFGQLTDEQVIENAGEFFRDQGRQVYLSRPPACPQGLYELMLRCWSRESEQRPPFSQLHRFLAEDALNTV

[15] = Inhibition of TGF-beta induced cell invasion in human MDA-MB-231 cells at 3 uM incubated for 24 hrs by crystal violet staining based transwell assay relative to control; format: functional
[16] = target: Mitogen-activated protein kinase kinase kinase kinase 5 (Homo sapiens, UniProt Q9Y4K4); test: Binding affinity to MAP4K5 (unknown origin) assessed as dissociation constant by competition binding assay
Chain of Mitogen-activated protein kinase kinase kinase kinase 5 (Q9Y4K4 whole entry): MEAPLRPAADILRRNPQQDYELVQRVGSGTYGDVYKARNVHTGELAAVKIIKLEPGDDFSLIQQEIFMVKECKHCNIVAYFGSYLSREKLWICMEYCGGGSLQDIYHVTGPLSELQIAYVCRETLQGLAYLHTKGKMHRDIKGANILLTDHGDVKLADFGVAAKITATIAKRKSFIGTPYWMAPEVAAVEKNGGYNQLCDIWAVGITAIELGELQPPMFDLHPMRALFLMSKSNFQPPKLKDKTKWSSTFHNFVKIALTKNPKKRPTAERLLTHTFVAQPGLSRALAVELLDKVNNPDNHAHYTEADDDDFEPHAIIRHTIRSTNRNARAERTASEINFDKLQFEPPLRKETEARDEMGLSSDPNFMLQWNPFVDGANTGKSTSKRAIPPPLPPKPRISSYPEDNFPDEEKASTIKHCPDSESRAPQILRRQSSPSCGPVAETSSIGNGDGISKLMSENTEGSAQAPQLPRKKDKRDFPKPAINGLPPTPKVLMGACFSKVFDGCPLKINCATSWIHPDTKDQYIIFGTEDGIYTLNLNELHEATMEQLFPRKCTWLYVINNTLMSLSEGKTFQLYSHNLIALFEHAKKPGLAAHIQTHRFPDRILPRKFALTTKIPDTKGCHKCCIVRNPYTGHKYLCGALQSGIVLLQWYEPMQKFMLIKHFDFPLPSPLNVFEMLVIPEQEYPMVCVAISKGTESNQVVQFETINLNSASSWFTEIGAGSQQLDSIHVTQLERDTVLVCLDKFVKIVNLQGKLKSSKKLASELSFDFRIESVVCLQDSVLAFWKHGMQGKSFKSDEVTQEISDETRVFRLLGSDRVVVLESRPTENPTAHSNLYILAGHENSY

[17] = test system: 4T1; test: Inhibition of ERK phosphorylation in mouse 4T1 cells measured after 6 hrs by Western blot analysis; format: cell-based; settings: dose 0.8-500 nM, DDE = dose-dependent effect
[18] = target: Ephrin type-B receptor 6 (Homo sapiens, UniProt O15197); test: Binding affinity to EPHB6 (unknown origin) assessed as dissociation constant by competition binding assay
Chain of Ephrin type-B receptor 6 (O15197 whole entry): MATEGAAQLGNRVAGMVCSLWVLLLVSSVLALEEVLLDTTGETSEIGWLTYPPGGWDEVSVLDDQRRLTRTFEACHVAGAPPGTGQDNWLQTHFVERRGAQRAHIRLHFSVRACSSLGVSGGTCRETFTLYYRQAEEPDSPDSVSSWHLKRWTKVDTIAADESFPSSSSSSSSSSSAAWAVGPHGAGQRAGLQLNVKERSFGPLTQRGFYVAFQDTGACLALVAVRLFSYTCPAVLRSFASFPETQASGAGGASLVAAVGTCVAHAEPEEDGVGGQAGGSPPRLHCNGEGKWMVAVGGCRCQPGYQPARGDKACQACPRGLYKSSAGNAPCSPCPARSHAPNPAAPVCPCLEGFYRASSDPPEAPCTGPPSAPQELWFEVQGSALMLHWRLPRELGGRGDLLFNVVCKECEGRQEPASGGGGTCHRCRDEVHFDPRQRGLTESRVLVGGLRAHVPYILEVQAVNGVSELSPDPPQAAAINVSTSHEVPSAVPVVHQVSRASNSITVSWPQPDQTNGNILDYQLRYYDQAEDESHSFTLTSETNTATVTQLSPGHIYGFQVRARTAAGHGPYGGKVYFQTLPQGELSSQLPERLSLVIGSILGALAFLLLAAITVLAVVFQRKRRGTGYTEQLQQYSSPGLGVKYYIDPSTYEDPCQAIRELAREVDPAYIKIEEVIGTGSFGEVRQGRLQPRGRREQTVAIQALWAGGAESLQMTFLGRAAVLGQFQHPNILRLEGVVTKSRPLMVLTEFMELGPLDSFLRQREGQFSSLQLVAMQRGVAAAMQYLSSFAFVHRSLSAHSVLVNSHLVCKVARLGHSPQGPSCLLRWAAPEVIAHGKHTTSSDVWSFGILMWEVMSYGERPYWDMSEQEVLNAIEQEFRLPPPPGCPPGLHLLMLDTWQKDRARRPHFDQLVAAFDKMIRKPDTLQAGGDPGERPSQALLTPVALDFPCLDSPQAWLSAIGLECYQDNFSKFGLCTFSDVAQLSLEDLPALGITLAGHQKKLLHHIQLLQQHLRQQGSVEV

[19] = target: Receptor-type tyrosine-protein kinase FLT3 (Homo sapiens, UniProt P36888); test: Inhibition of FLT3 (unknown origin)

- AUC(0-t) at 96 h [1]: 11700 ng·h/mL
- Tmax [2]: 3 h
- Kd [3]: 950 nM
- Kd [4]: 14 nM
- IC50 [5]: > 10000 nM
- Kd [6]: 0.26 nM
- Kd [10]: 29 nM
- IC50 [12]: 1.6 nM
- Kd [13]: 560 nM
- Kd [14]: > 1000 nM
- Kd [16]: > 1000 nM
- Kd [18]: > 1000 nM
- IC50 [19]: 156 nM
SMILES: COc1cc2c(Oc3ccc(Nc4nn(C)cc4C(=O)NC4CCCCC4)cc3F)ccnc2cc1OCCCN1CCOCC1
- inhibition [7]: Active
- inhibition in vivo at 100 mg/kg [8]: 95.9%
- inhibition [9]: Dde
- Activity [11]: Non-Toxic
- inhibition at 3 µM [15]: 70.4%
- inhibition [17]: Dde
